According to patent EP3954371B1, “ANTI-ACETYLCHOLINESTERASE ACTIVE COMPOSITION IN CAULIS MAHONIAE AND SCREENING METHOD THEREFOR AND APPLICATION THEREOF” (Shenzhen Institute for Drug Control (Shenzhen Testing …, priority 2019, dated 2021):

Key:
AChE [1] = target: T1, AChE (Homo sapiens, UniProt P22303); experiment: synergistic effect of combined active components (FIC) by AChE assay method; assay type: biochemical; conditions: for effect of combinations when used as the first alkaloid: first alkaloid diluted stepwise, other alkaloids fixed at IC30; for IC20 / IC80 / IC90 / IC50: first compound diluted, added compounds fixed at IC30, unit not in table; for IC20: read-out: IC Value (Standard Deviation) IC20; for IC80: read-out: IC Value (Standard Deviation) IC80; for IC90: read-out: IC Value (Standard Deviation) IC90; for IC50: read-out: IC Value (Standard Deviation) IC50 (converted)
T1 construct: purchased Sigma
T1 sequence (P22303 32-614): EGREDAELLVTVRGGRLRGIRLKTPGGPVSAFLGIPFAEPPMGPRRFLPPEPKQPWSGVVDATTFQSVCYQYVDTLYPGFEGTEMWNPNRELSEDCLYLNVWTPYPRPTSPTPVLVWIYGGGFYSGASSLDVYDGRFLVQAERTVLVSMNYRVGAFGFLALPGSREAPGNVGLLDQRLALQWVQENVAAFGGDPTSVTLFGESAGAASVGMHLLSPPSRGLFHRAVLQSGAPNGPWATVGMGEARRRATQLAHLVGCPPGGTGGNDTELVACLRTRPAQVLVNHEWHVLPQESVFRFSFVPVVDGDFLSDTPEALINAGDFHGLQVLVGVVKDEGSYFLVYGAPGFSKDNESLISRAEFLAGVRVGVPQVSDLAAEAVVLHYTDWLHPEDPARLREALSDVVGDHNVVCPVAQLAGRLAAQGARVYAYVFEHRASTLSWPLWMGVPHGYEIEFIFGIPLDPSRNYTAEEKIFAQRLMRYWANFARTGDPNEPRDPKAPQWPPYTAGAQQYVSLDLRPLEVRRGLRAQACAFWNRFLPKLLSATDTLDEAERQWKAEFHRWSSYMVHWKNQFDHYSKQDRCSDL
Description: One pharmaceutical component, compound A, was selected and diluted step by step according to 1:1; the concentration of a second pharmaceutical component, compound B, was fixed to IC30; based on a size of a fractional inhibitory concentration (FIC) value, the concentration of compound A was fixed, the concentration of pharmaceutical compound B was changed, and the FIC value was determined.
Fractional effects (FEs) of the two compounds are as follows: FEA = IC50 (A+B)/IC50 (A) [formula] FEB = IC50 (A+B)/IC50 (B) [formula] FIC = FEA + FEB [formula]
By analogy, all possible combinations were calculated. Table 4 Dilution concentration and fold

AChE [2] = target: T1, AChE; experiment: biochemical; conditions: mean ± standard deviation, repeated three times; 10 min at 37 °C, absorbance at 405 nm
Description: For the reaction system, see Table 3. The specific steps are described below.
140 µL of phosphate buffer (PBS, 0.1 mol/L, pH = 7.4), 20 µL of AChE (0.303 U/mL) and 20 µL of sample solution were added in sequence to a 96-well plate, mixed evenly, and added with 10 µL of DTNB (3.3 mM) and 10 µL of acetylthiocholine iodide (ATCI) (15 mM). They were mixed evenly and incubated for 10 min at 37 °C, then measured absorbance at 405 nm.
The sample was replaced with PBS in a blank enzyme group. The sample was replaced with PBS in a blank enzyme-free group. The enzyme solution was replaced with PBS in the sample control group.
The inhibitory rate of the sample against AChE activity is calculated by the following formula: Inhibitory rate = [1−(Asample−Asample control)/(Ablank enzyme−Ablank enzyme−free)] × 100% [formula]
The median inhibitory concentration of AChE was calculated by testing inhibitory rates at different sample concentrations. […] Table 3 Anti-AChE activity screening method

AChE [3] = target: T1, AChE; assay type: binding; conditions: 20 µg/mL in ammonium acetate buffer (10 mM, pH = 7.4) for standards; FIGS. 4A, 4B, 5
Description: In a first step, a mobile phase, the ammonium acetate buffer (10 mM, pH = 7.4), was provided by a peristaltic pump at a flow rate of 5 µL/min and a sample was injected at a volume of 100 µL, and the process lasted for 40 min, then fractions were collected.
In a second step, the mobile phase was changed from the ammonium acetate buffer (10 mM, pH = 7.4) to methanol and provided at a flow rate of 20 µL/min and target components were dissociated from proteins, and the process lasted for 20 min, then fractions were collected.
A blank control monolithic column, Control-ICER, was set by the same operation method and the corresponding fractions were collected.
The collected fractions were blown to dryness with N2, dissolved in 100 µL of methanol, and analyzed through LC-MS.
LC-MS conditions: a chromatographic column Thermo Acclaim TM C18 (4.6 mm× 250 mm, 5 µm); mobile phases where acetonitrile was mobile phase A and 0.08% (v/v) formic acid and a 2 mM ammonium acetate solution were mobile phase B; a flow rate of 1.0 mL/min; an injection volume of 3 µL; a column temperature of 25 °C; and a detection wavelength of 280 nm. […]

Row | Structure (SMILES) | effect of combinations when used as the first alkaloid (AChE [1]) | IC20 (AChE [1]) [µg/mL] | IC80 (AChE [1]) [µg/mL] | IC90 (AChE [1]) [µg/mL] | IC50 (AChE [2]) [µM] | IC50 (AChE [1]) [µM] | retention on AChE-ICER / Control-ICER (specific binding) (AChE [3])
1 | COc1ccc2cc3[n+](cc2c1OC)CCc1cc2c(cc1-3)OCO2 [Ber, berberine] | only the irrelevant effect or the antagonistic effect | 0.26 | 24.1 | 50.2 | – | – | –
2 | COc1cc2c(cc1O)-c1cc3ccc(OC)c(OC)c3c[n+]1CC2 [Col, columbamine] | significant synergistic effect | 0.18 | 4.8 | 12.5 | 2.75 | 2.75 | –
3 | COc1cc2c(cc1O)CC[n+]1cc3c(OC)c(OC)ccc3cc1-2 [Jat, jatrorrhizine] | significant synergistic effect | 0.39 | 31.4 | 63.2 | 10.3 | 10.3 | –
4 | COc1cc2c(cc1OC)-c1cc3ccc(OC)c(OC)c3c[n+]1CC2 [Pal, palmatine] | only the irrelevant effect or the antagonistic effect | 0.1 | 22.8 | 48.3 | 4.31 | 4.31 | –
5 | CCCC(=O)Nc1ccc(OCC(O)CNC(C)C)c(C(C)=O)c1 (centres unmarked) [acebutolol] | – | – | – | – | – | – | remains neither on AChE-ICER nor on enzyme-inactive Control-ICER
